Results as given in patent US6608082B1, “Treatment of erectile dysfunction using isoquinoline compound melanocortin receptor ligands” (Lion Bioscience AG, priority 1998, dated 2003).

Biological target: T1, MCR-1 (Homo sapiens, UniProt Q01726)
T1 construct: expressed in transfected cells; host or cells: HEK 293
Assay: Melanocortin receptor binding assay, competition with 125I-HP 467, HEK 293 cells expressing hMCR-1
Conditions: displacement of 125I-HP 467 at 10 μM isoquinoline compound
Protocol: All cell culture media and reagents were obtained from GibcoBRL (Gaithersburg Md.), except for COSMIC CALF SERUM (HyClone; Logan Utah).
Cells were suspended in PBS, 10% COSMIC CALF SERUM and 1 mM CaCl2. Cell suspensions were prepared at a density of 2×10^4 cells/ml for HEK 293 cells expressing hMCR-3, hMCR-4 or hMCR-5, and 1×10^5 cells/ml for HEK 293 cells expressing hMCR-1. Suspensions were placed in a water bath and allowed to warm to 37° C. for 1 hr.
Binding assays were performed in a total volume of 250 μl for HEK 293 cells. […] To each tube was added 4×10^3 HEK 293 cells expressing hMCR-3, hMCR-4 or hMCR-5, or 2×10^4 cells expressing hMCR-1. Assays were incubated for 2.5 hr at 37° C.
GF/B filter plates were prepared by soaking for at least one hour in 5 mg/ml BSA and 10 mM CaCl2. Assays were filtered using a Brandel 96-well cell harvester (Brandel Inc.; Gaithersburg, Md.). The filters were washed four times with cold 50 mM Tris, pH 7.4, the filter plates were dehydrated for 2 hr and 35 μl of MICROSCINT was added to each well. Filter plates were counted using a Packard Topcount (Packard Instrument Co.) and data analyzed using GraphPad PRISM v2.0 (GraphPad Software Inc.; San Diego Calif.) and Microsoft EXCEL v5.0a (Microsoft Corp.; Redmond Wash.).
To assay isoquinoline compounds, binding assays were performed in duplicate in a 96 well format. […] A 0.2 ml aliquot of suspended cells was added to each well to give the cell numbers indicate above, and the cells were incubated at 37° C. for 2.5 hr. Cells were harvested on GF/B filter plates as described above and counted.

T1 sequence (Q01726 whole entry): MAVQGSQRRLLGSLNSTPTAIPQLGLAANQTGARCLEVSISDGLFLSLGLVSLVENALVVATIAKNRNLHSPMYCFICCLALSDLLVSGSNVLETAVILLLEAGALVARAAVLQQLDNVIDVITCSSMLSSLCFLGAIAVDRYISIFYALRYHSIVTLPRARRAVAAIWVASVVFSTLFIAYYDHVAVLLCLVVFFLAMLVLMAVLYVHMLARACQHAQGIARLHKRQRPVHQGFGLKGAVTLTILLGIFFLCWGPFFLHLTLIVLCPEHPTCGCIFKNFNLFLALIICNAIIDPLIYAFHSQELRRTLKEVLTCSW

Row | SMILES | % Disp. MC-1 10 μM (first of duplicate) [%] | % Disp. MC-1 10 μM (second of duplicate) [%]
1 | NCCN1Cc2ccccc2C(CNC2CCCCC2)C1c1ccncc1 (centres unmarked) [TRG 2405-74] | 35.3 | 0
2 | NCCN1Cc2ccccc2C(CNC2CCCCC2)C1c1ccnc2ccccc12 (centres unmarked) [TRG 2405-75] | 38.9 | 17.6
3 | Cc1ccc(C2C(CNC3CCCCC3)c3ccccc3CN2CCN)s1 (centres unmarked) [TRG 2405-78] | 33.3 | 40.8
4 | Cc1ccc(C2C(CNC3CCCCC3)c3ccccc3CN2CCN)o1 (centres unmarked) [TRG 2405-79] | 17.3 | 26.3
5 | Cc1cccc(C2C(CNC3CCCCC3)c3ccccc3CN2CCN)n1 (centres unmarked) [TRG 2405-81] | 0 | 43.1
6 | NCCN1Cc2ccccc2C(CNC2CCCCC2)C1c1ccc2cccc(O)c2n1 (centres unmarked) [TRG 2405-82] | 18.5 | 29.6
7 | CCn1c2ccccc2c2cc(C3C(CNC4CCCCC4)c4ccccc4CN3CCN)ccc21 (centres unmarked) [TRG 2405-83] | 39.1 | 46.9
8 | NCCN1Cc2ccccc2C(CNC2CCCCC2)C1c1cc2c3c(c1O)CCCN3CCC2 (centres unmarked) [TRG 2405-84] | 18.2 | 37.5
9 | CS(=O)(=O)c1ccc(C2C(CNC3CCCCC3)c3ccccc3CN2CCN)cc1 (centres unmarked) [TRG 2405-87] | 21.9 | 22.1
10 | COc1ccc(C2C(CNC3CCCCC3)c3ccccc3CN2CCN)cc1S(=O)(=O)O (centres unmarked) [TRG 2405-88] | 5.5 | 0
11 | NCCN1Cc2ccccc2C(CNC2CCCCC2)C1c1ccc(Br)o1 (centres unmarked) [TRG 2405-89] | 21.5 | 31.2
12 | NCCN1Cc2ccccc2C(CNC2CCCCC2)C1c1nccs1 (centres unmarked) [TRG 2405-90] | 48.4 | 45.9
13 | CNC(CN)CN1Cc2ccccc2C(CNC2CCCCC2)C1c1ccccc1 (centres unmarked) [TRG 2405-91] | 35.2 | 43.9
14 | CNC(CN)CN1Cc2ccccc2C(CNC2CCCCC2)C1c1ccccc1O (centres unmarked) [TRG 2405-92] | 57.6 | 49.9
15 | CNC(CN)CN1Cc2ccccc2C(CNC2CCCCC2)C1c1ccc2c(c1)OCCO2 (centres unmarked) [TRG 2405-93] | 43.2 | 56.2
16 | CNC(CN)CN1Cc2ccccc2C(CNC2CCCCC2)C1c1cccc2ccccc12 (centres unmarked) [TRG 2405-95] | 45.6 | 51.1
17 | CNC(CN)CN1Cc2ccccc2C(CNC2CCCCC2)C1c1ccc(F)c(F)c1F (centres unmarked) [TRG 2405-96] | 44.5 | 54.4
18 | CNC(CN)CN1Cc2ccccc2C(CNC2CCCCC2)C1c1cc(Cl)cc(Cl)c1Cl (centres unmarked) [TRG 2405-97] | 58.2 | 61.1
19 | CNC(CN)CN1Cc2ccccc2C(CNC2CCCCC2)C1c1cccc2c1OCO2 (centres unmarked) [TRG 2405-98] | 20.1 | 48.3
20 | CNC(CN)CN1Cc2ccccc2C(CNC2CCCCC2)C1c1cccc(F)c1F (centres unmarked) [TRG 2405-99] | 34.7 | 54.2
21 | CNC(CN)CN1Cc2ccccc2C(CNC2CCCCC2)C1c1c(F)cccc1F (centres unmarked) [TRG 2405-101] | 34 | 45.3
22 | CNC(CN)CN1Cc2ccccc2C(CNC2CCCCC2)C1c1ccccc1Br (centres unmarked) [TRG 2405-102] | 44.7 | 50.4
